Results on 1 molecule are retold here after US4803221A, “Anthracene derivatives” (priority 1987, dated 1989).

Each structure is given as a SMILES string. Some results are limits rather than exact numbers.

A short description of data set [1]: LD50 Tests. The conditions noted are these: in vivo; IP single dose, CD-1 male mouse. The source says: |(IP single dose - CD-1 Male Mouse)
Data set [2] is described as follows: Antibacterial screening against Mycoplasma smegmatis. The format is cell-based. The text has this:
Antibacterial test against Mycoplasma smegmatis (S3264) and Streptococcus pyogenes (CN10) was done with slight modifications using standard agar dilution assays as outlined in Manual of Clinical Microbiology Second Ed., E. H. Lennette, E. H. Spaulding and J. P. Truant Eds., American Society for Microbiology, Washington, DC, 1974.

Data set [3] has as its system lymphocytic leukemia P388/0. Description: Lymphocytic Leukemia P388/0 Test. The format is in vivo, mouse (CD2-F1). Also on record: LD20: unit: mg/kg. The following applies: ip days 1, 5, 9. The text has this: Methods for evaluating the antitumor activity of these compounds are essentially those used in the Tumor Panel by the Developmental Therapeutics Program, Division of Cancer Treatment, National Cancer Institute, A. Goldin, et al., Methods in Cancer Research, Vol. XVI, p.165, Academic Press (1979). Some modifications, in dose level and schedule have been made to increase the testing efficiency.
CD2-F1 mice, of the same sex, weighing 20±3 g are used for this test. Control and test animals are injected intraperitoneally with a suspension of ~10^6 viable P388/0 tumor cells on day 0. In each test, several dose levels which bracket the LD20 of the compound are evaluated; each dose level group contains six animals. The test compounds are prepared either in physiologic saline containing 0.05% Tween 80 or distilled water containing 5% dextrose and are administered intraperitoneally on days 1, 5, and 9 relative to tumor implant. Doses are on a mg/kg basis according to individual animals' body weights. The day of death for each animal is recorded, the median identified for each group and the ratios of median survival time for treated (T)/control (C) Groups are calculated. The criterion for activity is T/C×100≥120%.

Data set [4] has as its system Candida albicans. Description: Antifungal testing against Candida albicans (CN 1863). It is filed as cell-based, Candida albicans (CN1863). The following applies: Wellcotest sensitivity test agar plus 7% lysed horse blood. The source says: Antifungal testing against Candida albicans (CN 1863) was done with slight modifications using a combination of broth and agar dilution assays as outlined in Laboratory Handbook of Medical Mycology, Chapter 6, pages 441-446, M. R. McGinnis, Academic Press, New York, NY, 1980
Medium: Wellcotest ® sensitivity test agar plus 7% lysed horse blood.

The subject of data set [5] is Nippostrongylus brasiliensis. Description: Anthelmintic screening against Nippostrongylus brasiliensis. It is filed as cell-based. The conditions noted are these: immature - free living stages, read-out: MIC. The source says:
Anthelmintic testing against Nippostrongylus brasiliensis was done using methods outlined in D. C. Jenkins, R. Armitage, and T. S. Carrington, Zeitschrift for Parasitenkunde 63, 261-269 (1980)

In the case of `CC(CO)(CO)NCc1c2ccccc2cc2ccccc12.Cl` [Example 1, 2-((9-Anthracenylmethyl)amino)-2-methyl-1,3-propanediol hydrochloride], the LD50 in data set [1] is 160 mg/kg. Besides, the MIC in data set [2] is < 5 µg/mL; in data set [4], > 50 µg/mL; in data set [5] it was ≥ 50 µg/mL. In data set [3] (doses on a mg/kg basis), the LD20 is 150. The “T/C × 100% (Excluding 30 Day Survivors)” value in data set [3] (median survival time treated/control, at the optimal dose of the compound (Table I), active if ≥120%) is listed as “+130%”.

For orientation: LD50 means the dose at which mortality reaches 50%. Usually MIC stands for the lowest concentration that inhibits growth of the organism.
